Literature values as cited in patent US6110927A, “Loratadine for use as an antiarrhythmic” (Pfizer Inc, priority 1999, dated 2000).

Tests used:
[1] = clinical studies
[2] = both with and without a history of similar arrhythmia
hKv1.5 channels = details: only at concentrations much higher than therapeutic plasma levels in man

Compound	efficacy in treating patients with atrial arrhythmias [1]	reported cases of atrial fibrillation with loratadine use [2]	block of hKv1.5 channels (hKv1.5 channels)
CN(CCOc1ccc(NS(C)(=O)=O)cc1)CCc1ccc(NS(C)(=O)=O)cc1 [dofetilide]	effective in treating patients with atrial arrhythmias	–	–
CCOC(=O)N1CCC(=C2c3ccc(Cl)cc3CCc3cccnc32)CC1 [loratadine, ethyl 4-(8-chloro-5,6-dihydro-11-H-benzo [5,6]cyclohepta-[1,2-b]-pyridin-11-ylidene)-1-piperidinecarboxylate]	–	at least 2 cases	blocked hKv1.5 channels in a concentration-, voltage-, time- and use-dependent manner
